Laboratory results published in patent US20230293469A1, “NOVEL PHARMACEUTICAL COMPOSITIONS” (NEUROPRO THERAPEUTICS, INC., priority 2020, published 2023).
Several values for one entry are separate records, joined by “and”; a condition that tells them apart may be missing. Equal entries are not always repeated. Where two headings read alike, the source gives them in different places.

How the values were obtained:
[1] = Oral dose PK of NPT-2042 in rat; type: in vivo
Method: (§1) Assays were performed to determine absolute bioavailability of NPT2042 in two species: dog and rat. The calculation of absolute bioavailability depends on four inputs: the areas under the curves (AUC) for oral and IV, and the oral and IV doses.
Testing was conducted to determine AUCs for an oral dose in rat.

Rat Microsomes = experiment: Metabolite screening of NPT-2042 in rat microsomes; type: in vitro ADME; conditions: NPT-2042 10 uM, microsomes 1 mg/mL
Method: (§2) Incubation of Test Compound in Microsomes • 1. Compound final concentration: 10 uM. • 2. Microsomes concentration 1 mg/mL. • 3. Incubate for 1 hour, with an NADPH regenerating system. • 4. 0.5 mL of incubation mixture at 0 min and 1 hour, mixed with 0.5 mL of acetonitrile. • 5. Vortex, and centrifuge at 13200 rpm for 10 min. • 6. Supernatant was transferred to a clean vial for LCMS analysis NADPH regenerating system (cofactor; consisting of NADP [0.340 mg/mL], G6P [1.56 mg/mL], and G6PDH [0.4 U/mL] solutions) LC-MS/MS Method: • HPLC Column: Agilent, Polaris 3 […], 150×2.0 mm (S/N: 533819), made in Netherlands. • Guard Column: Agilent, MonoChrom 3 C18 MetaGuard, 10×2.0 mm (S/N: 556145) • Column temperature: 40° C. • Mobile Phase A: 5 mM ammonium format in water (Optima) • Mobile Phase B: acetonitrile (Optima) • Flow rate: 0.2 mL/min • Gradient (Table on right) • MS: Thermo Q Exactive Plus.

[2] = IV bolus PK of NPT-2042 in rat; type: in vivo; conditions: IV bolus 10 mg/kg
[3] = Oral dose PK of NPT2042 in dog (AUC for absolute bioavailability); type: in vivo
Method: as §1
Testing was conducted to determine AUCs for an oral dose in dog.
Two dogs were each dosed 30 mg/kg NPT2042 orally, on two different days.

Human Microsomes = experiment: Metabolite screening of NPT-2042 in human microsomes; type: in vitro ADME; conditions: NPT-2042 10 uM, microsomes 1 mg/mL
Method: as §2

Microsomes = experiment: Proposed metabolite structures and biotransformation pathways (rat, dog, human microsomes); type: in vitro ADME; conditions: rat, dog, human microsomes, 10 uM, 1 hour
Method: Incubation of Test Compound in Microsomes • 1. Compound final concentration: 10 uM. • 2. Microsomes concentration 1 mg/mL. • 3. Incubate for 1 hour, with an NADPH regenerating system. • 4. 0.5 mL of incubation mixture at 0 min and 1 hour, mixed with 0.5 mL of acetonitrile. • 5. Vortex, and centrifuge at 13200 rpm for 10 min. • 6. Supernatant was transferred to a clean vial for LCMS analysis NADPH regenerating system (cofactor; consisting of NADP [0.340 mg/mL], G6P [1.56 mg/mL], and G6PDH [0.4 U/mL] solutions)
LC-MS/MS Method: • HPLC Column: Agilent, Polaris 3 C18-A, 150×2.0 mm (S/N: 533819), made in Netherlands. • Guard Column: Agilent, MonoChrom 3 C18 MetaGuard, 10×2.0 mm (S/N: 556145) • Column temperature: 40° C. • Mobile Phase A: 5 mM ammonium format in water (Optima) • Mobile Phase B: acetonitrile (Optima) • Flow rate: 0.2 mL/min • Gradient (Table on right) • MS: Thermo Q Exactive Plus.
Summary of Proposed Metabolite Structures and Biotransformation Pathway

Dog Microsomes = experiment: Metabolite screening of NPT-2042 in dog microsomes; type: in vitro ADME; conditions: NPT-2042 10 uM, microsomes 1 mg/mL
Method: as §2

[4] = plasma, NPT-2042, rat, oral 30 mg/kg
[5] = rat, oral, dose column 30 mg/kg, individual rats and Mean (N=3)
[6] = rat, oral, dose column 30 mg/kg, individual rats and Mean (N=3), mean
[7] = 1 hour, NADPH regenerating system
[8] = rat, individual rats and Mean (N=3), 10 mg/kg
[9] = rat, individual rats and Mean (N=3), 10 mg/kg, mean
[10] = NPT2042, dog, oral 30 mg/kg, animals D0001, D0601, Mean, 30 mg/kg
[11] = NPT2042, dog, oral 30 mg/kg, animals D0001, D0601, Mean, 30 mg/kg, mean
[12] = dog, in vivo, po, 30 mg/kg, NPT2042, dog, oral 30 mg/kg, animals D0001, D0601, Mean

CCCCNc1cc(C(=O)N(Cc2ccccc2)Cc2ccccc2)cc(S(N)(=O)=O)c1Oc1ccccc1 [NPT-2042, N,N-Dibenzyl 3-Aminosulfonyl-5-butylamino-4-phenoxybenzamide]
half-life ([1]; in vivo, NPT-2042, rat, oral 30 mg/kg, read-out: t½ (converted)): 2.61 h | bioavailability ([1]; in vivo, rat, oral 30 mg/kg vs IV 10 mg/kg, read-out: Fabs (%), absolute bioavailability): 0.34% | AUC(0-inf) [1, 4]: 35.4 ng·h/mL | Cmax [1, 4]: 4.56 ng/mL | Tmax [1, 4]: 4 h | concentration at 0.5 h ([1]; rat, in vivo, oral, 30 mg/kg, rat, oral, dose column 30 mg/kg, individual rats and Mean (N=3), read-out: NPT-2042 concentration, Time 0.50 h): 2.01 ng/mL | concentration at 2 h ([1]; rat, in vivo, oral, 30 mg/kg, rat, oral, dose column 30 mg/kg, individual rats and Mean (N=3), read-out: NPT-2042 concentration, Time 2.00 h): 4 ng/mL | concentration at 4 h ([1]; rat, in vivo, oral, 30 mg/kg, rat, oral, dose column 30 mg/kg, individual rats and Mean (N=3), read-out: NPT-2042 concentration, Time 4.00 h): 3.52 ng/mL | concentration at 6 h ([1]; rat, in vivo, oral, 30 mg/kg, rat, oral, dose column 30 mg/kg, individual rats and Mean (N=3), read-out: NPT-2042 concentration, Time 6.00 h): 3.99 ng/mL | concentration at 12 h ([1]; rat, in vivo, oral, 30 mg/kg, rat, oral, dose column 30 mg/kg, individual rats and Mean (N=3), read-out: NPT-2042 concentration, Time 12.00 h): 0.78 ng/mL | Fabs (ratio), absolute bioavailability ([1]; rat, oral 30 mg/kg vs IV 10 mg/kg): 0.0034 | NPT-2042 concentration, Time 0.50 h [1, 5]: 1.29 ng/mL and 1.67 ng/mL | NPT-2042 concentration, Time 1.00 h [1, 5]: 2.14 ng/mL and 4.70 ng/mL and 2.45 ng/mL | NPT-2042 concentration, Time 2.00 h [1, 5]: 2.88 ng/mL and 3.60 ng/mL | NPT-2042 concentration, Time 4.00 h [1, 5]: 5.42 ng/mL and 4.73 ng/mL | NPT-2042 concentration, Time 6.00 h [1, 5]: 2.49 ng/mL and 4.15 ng/mL | NPT-2042 concentration, Time 8.00 h [1, 5]: 1.57 ng/mL and 2.57 ng/mL and 3.20 ng/mL | NPT-2042 concentration, Time 12.00 h [1, 5]: 0.715 ng/mL and 0.731 ng/mL | NPT-2042 concentration, Time 0.50 h [1, 6]: 1.66 ng/mL | NPT-2042 concentration, Time 1.00 h [1, 6]: 3.10 ng/mL | NPT-2042 concentration, Time 2.00 h [1, 6]: 3.49 ng/mL | NPT-2042 concentration, Time 4.00 h [1, 6]: 4.56 ng/mL | NPT-2042 concentration, Time 6.00 h [1, 6]: 3.54 ng/mL | NPT-2042 concentration, Time 8.00 h [1, 6]: 2.45 ng/mL | NPT-2042 concentration, Time 12.00 h [1, 6]: 0.742 ng/mL | Rat Mic (MS Intensity) (Rat Microsomes; [7]): 7.73E+07 | Rat Mic (MS Intensity) (Rat Microsomes; T = 0): 4.15E+08 | clearance ([2]; in vivo, NPT-2042, rat): 48 mL/min/kg | Vd ([2]; in vivo, NPT-2042, rat, read-out: Vz): 10.8 L/kg | half-life ([2]; in vivo, NPT-2042, rat, read-out: t½ (converted)): 2.61 h | AUC(0-inf) ([2]; plasma, NPT-2042, rat): 3470 ng·h/mL | Cmax ([2]; plasma, NPT-2042, rat): 2510 ng/mL | Tmax ([2]; plasma, NPT-2042, rat): 4.8 min | NPT-2042 concentration, Time 0.08 h [2, 8]: 3080 ng/mL and 2720 ng/mL | NPT-2042 concentration, Time 1.00 h [2, 8]: 250 ng/mL and 1190 ng/mL and 924 ng/mL | NPT-2042 concentration, Time 2.00 h [2, 8]: 477 ng/mL and 421 ng/mL | NPT-2042 concentration, Time 4.00 h [2, 8]: 205 ng/mL and 218 ng/mL | NPT-2042 concentration, Time 6.00 h [2, 8]: 203 ng/mL and 145 ng/mL and 60.8 ng/mL | NPT-2042 concentration, Time 8.00 h [2, 8]: 20.0 ng/mL and 33.1 ng/mL and 87.3 ng/mL | NPT-2042 concentration, Time 12.00 h [2, 8]: 60.8 ng/mL and 18.6 ng/mL and 4.67 ng/mL | NPT-2042 concentration, Time 24.00 h [2, 8]: 0.257 ng/mL and 0.582 ng/mL and 1.95 ng/mL | NPT-2042 concentration, Time 0.08 h [2, 9]: 2510 ng/mL | NPT-2042 concentration, Time 1.00 h [2, 9]: 788 ng/mL | NPT-2042 concentration, Time 2.00 h [2, 9]: 405 ng/mL | NPT-2042 concentration, Time 4.00 h [2, 9]: 196 ng/mL | NPT-2042 concentration, Time 6.00 h [2, 9]: 136 ng/mL | NPT-2042 concentration, Time 8.00 h [2, 9]: 46.8 ng/mL | NPT-2042 concentration, Time 12.00 h [2, 9]: 28.0 ng/mL | NPT-2042 concentration, Time 24.00 h [2, 9]: 0.930 ng/mL | concentration at 0.08 h ([2]; rat, plasma, iv, 10 mg/kg, rat, individual rats and Mean (N=3), read-out: NPT-2042 concentration, Time 0.08 h): 1720 ng/mL | concentration at 2 h ([2]; rat, plasma, iv, 10 mg/kg, rat, individual rats and Mean (N=3), read-out: NPT-2042 concentration, Time 2.00 h): 317 ng/mL | concentration at 4 h ([2]; rat, plasma, iv, 10 mg/kg, rat, individual rats and Mean (N=3), read-out: NPT-2042 concentration, Time 4.00 h): 165 ng/mL | AUCinf [3, 10]: 1520 ng·h/mL | AUClast [3, 10]: 1450 ng·h/mL | CL/F [3, 10]: 328 mL/min/kg | Cmax [3, 10]: 153 ng/mL | t½ [3, 10]: 4.72 h | AUCinf [3, 11]: 1440 ng·h/mL | AUClast [3, 11]: 1390 ng·h/mL | CL/F [3, 11]: 347 mL/min/kg | Cmax [3, 11]: 152 ng/mL | t½ [3, 11]: 4.16 h | AUC(0-inf) [3, 12]: 1360 ng·h/mL | AUC(0-t) [3, 12]: 1340 ng·h/mL | CL/F ([3]; dog, in vivo, po, 30 mg/kg, NPT2042, dog, oral 30 mg/kg, animals D0001, D0601, Mean, read-out: CL/F (converted)): 367 mL/min/kg | Cmax ([3]; dog, in vivo, po, 30 mg/kg, NPT2042, dog, oral 30 mg/kg, animals D0001, D0601, Mean, read-out: Cmax): 151 ng/mL | Vd/F ([3]; dog, in vivo, po, 30 mg/kg, NPT2042, dog, oral 30 mg/kg, animals D0001, D0601, Mean, read-out: Vz/F): 115 L/kg | half-life ([3]; dog, in vivo, po, 30 mg/kg, NPT2042, dog, oral 30 mg/kg, animals D0001, D0601, Mean, read-out: t½ (converted)): 3.61 h | Absolute bioavailability (AUCpo/AUCiv)*(Doseiv/Dosepo) ([3]; dog, oral 30 mg/kg vs IV 10 mg/kg, as fraction): 0.0509 | Tmax ([3]; in vivo, NPT2042, dog, oral 30 mg/kg, animals D0001, D0601, Mean): 6 h | bioavailability ([3]; in vivo, dog, oral 30 mg/kg vs IV 10 mg/kg): 5.1% | Human Mic (MS Intensity) (Human Microsomes; [7]): 1.64E+08 | Human Mic (MS Intensity) (Human Microsomes; T = 0): 3.71E+08 | Major biotransformation pathways (Microsomes): De-alkylation, Mono-oxidation, and Mono-oxidation and De-alkylation | Dog Mic (MS Intensity) (Dog Microsomes; [7]): 1.85E+08 | Dog Mic (MS Intensity) (Dog Microsomes; T = 0): 3.79E+08
